# Target: T1, UGT8 (Homo sapiens, UniProt Q16880)
# T1 construct: host or cells: OE19 cells
# T1 sequence (Q16880 21-541): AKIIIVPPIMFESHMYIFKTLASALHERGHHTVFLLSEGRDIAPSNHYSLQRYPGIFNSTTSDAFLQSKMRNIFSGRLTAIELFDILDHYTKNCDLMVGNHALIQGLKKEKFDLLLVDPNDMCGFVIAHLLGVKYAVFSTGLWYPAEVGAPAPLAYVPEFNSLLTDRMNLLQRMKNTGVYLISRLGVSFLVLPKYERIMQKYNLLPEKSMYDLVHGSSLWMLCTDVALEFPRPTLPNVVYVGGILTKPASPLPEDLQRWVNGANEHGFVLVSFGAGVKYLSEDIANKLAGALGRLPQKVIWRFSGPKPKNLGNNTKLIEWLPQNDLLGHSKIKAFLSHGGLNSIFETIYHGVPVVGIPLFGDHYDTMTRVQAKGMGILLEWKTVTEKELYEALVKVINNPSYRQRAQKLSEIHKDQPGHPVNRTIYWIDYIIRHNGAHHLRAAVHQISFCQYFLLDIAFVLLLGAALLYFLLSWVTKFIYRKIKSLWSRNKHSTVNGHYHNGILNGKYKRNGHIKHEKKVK
# Assay: In vitro sulfatide (SFT) synthesis inhibition in OE19 cells, LC-MS/MS readout
# Format: cell-based
# Conditions: 72 hr, sulfatide by LC-MS/MS
# Procedure, shortened: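 OE19 cells, 2,500/well, exposed to compound dose-downs in triplicate for 72 hr at 37° C (screening at 10 μM final). Sulfatide quantified by LC-MS/MS (C8 UPLC, isocratic, negative-ion MRM) with C17 SFT internal standard; IC50 from concentration-response curves.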
row,SMILES,"Potency range (IC50, In-vitro SFT)"
1,"CNC(=O)c1csc2c(C(F)(F)F)cc(N3CCC(OC(=O)NCC4CC4)CC3)nc12.Cl [Example 669, [1-[3-(Methylcarbamoyl)-7-(trifluoromethyl)thieno[3,2-b]pyridin-5-yl]-4-piperidyl] N-(cyclopropylmethyl)carbamate hydrochloride]",A (A < 0.1 uM)

# Same assay, conditions: 72 hr, sulfatide by LC-MS/MS, read-out: Potency range (IC50, In-vitro SFT)
row,SMILES,IC50 [nM]
1,"CNC(=O)c1csc2c(C(F)(F)F)cc(OC3CCN(C(=O)OC(C)(C)C)C3)nc12 (stereo not drawn) [Example 589, tert-Butyl 3-((3-(methylcarbamoyl)-7-(trifluoromethyl)thieno[3,2-b]pyridin-5-yl)oxy)pyrrolidine-1-carboxylate]",100 to 1000
2,"CNC(=O)c1csc2c(C(F)(F)F)cc(OC3CCN(C(=O)NCC4CC4)C3)nc12 (stereo not drawn) [Example 590, 5-((1-((Cyclopropylmethyl)carbamoyl)pyrrolidin-3-yl)oxy)-N-methyl-7-(trifluoromethyl)thieno[3,2-b]pyridine-3-carboxamide]",100 to 1000
3,"CNC(=O)c1csc2c(C(F)(F)F)cc(O[C@H]3CCN(C(=O)OC(C)(C)C)C3)nc12 [Example 593, tert-Butyl (S)-3-((3-(methylcarbamoyl)-7-(trifluoromethyl)thieno[3,2-b]pyridin-5-yl)oxy)pyrrolidine-1-carboxylate]",100 to 1000
4,"CNC(=O)c1csc2c(C(F)(F)F)cc(O[C@H]3CCN(C(=O)NCC4CC4)C3)nc12 [Example 594, (S)-5-((1-((Cyclopropylmethyl)carbamoyl)pyrrolidin-3-yl)oxy)-N-methyl-7-(trifluoromethyl)thieno[3,2-b]pyridine-3-carboxamide]",100 to 1000
5,"CNC(=O)c1csc2c(C(F)(F)F)cc(CC3CCN(C(=O)OCCOC(F)(F)F)CC3)nc12 [Example 632, 2-(Trifluoromethoxy)ethyl 4-((3-(methylcarbamoyl)-7-(trifluoromethyl)thieno[3,2-b]pyridin-5-yl)methyl)piperidine-1-carboxylate]",< 100
6,"CNC(=O)c1csc2c(C(F)(F)F)c(Cl)c(N3CCN(CC(=O)NC(C)C)CC3)nc12 [Example 636, 6-Chloro-5-[4-[2-(isopropylamino)-2-oxo-ethyl]piperazin-1-yl]-N-methyl-7-(trifluoromethyl)thieno[3,2-b]pyridine-3-carboxamide]",100 to 1000
7,"CNC(=O)c1csc2c(C(F)(F)F)c(Cl)c(N3CCC(OC(=O)NCC4CC4)CC3)nc12 [Example 638, [1-[6-Chloro-3-(methylcarbamoyl)-7-(trifluoromethyl)thieno[3,2-b]pyridin-5-yl]-4-piperidyl] N-(cyclopropylmethyl)carbamate]",< 100
8,"CNC(=O)c1csc2c(C(F)(F)F)c(Cl)c(N3CCC(OC(=O)NC4CC4)CC3)nc12 [Example 640, [1-[6-Chloro-3-(methylcarbamoyl)-7-(trifluoromethyl)thieno[3,2-b]pyridin-5-yl]-4-piperidyl] N-cyclopropylcarbamate]",< 100
9,"CNC(=O)c1csc2c(C(F)(F)F)c(F)c(N3CCC(OC(=O)NC4CC4)CC3)nc12 [Example 641, [1-[6-fluoro-3-(methylcarbamoyl)-7-(trifluoromethyl)thieno[3,2-b]pyridin-5-yl]-4-piperidyl] N-cyclopropylcarbamate]",< 100
10,"CC(C)NC(=O)c1csc2c(C(F)(F)F)cc(N3CCC(NC(=O)OC(C)(C)C)C3)nc12 (stereo not drawn) [Example 642, tert-Butyl N-[1-[3-(isopropylcarbamoyl)-7-(trifluoromethyl)thieno[3,2-b]pyridin-5-yl]pyrrolidin-3-yl]carbamate]",100 to 1000
11,"CC(C)NC(=O)CN1CCN(c2cc(C(F)(F)F)c3scc(C(=O)N4CCC4)c3n2)CC1 [Example 649, 2-[4-[3-(Azetidine-1-carbonyl)-7-(trifluoromethyl)thieno[3,2-b]pyridin-5-yl]piperazin-1-yl]-N-isopropyl-acetamide]",100 to 1000
12,"[2H]C([2H])([2H])NC(=O)c1csc2c(C(F)(F)F)cc(N3CCC(OC(=O)NC4CC4)CC3)nc12 [Example 653, [1-[3-(Trideuteriomethylcarbamoyl)-7-(trifluoromethyl)thieno[3,2-b]pyridin-5-yl]-4-piperidyl] N-cyclopropylcarbamate]",< 100
13,"COC(=O)c1csc2c(C(F)(F)F)cc(N3CCC(NC(=O)OC(C)(C)C)C3)nc12 (stereo not drawn) [Example 659, Methyl 5-[3-(tert-butoxycarbonylamino)pyrrolidin-1-yl]-7-(trifluoromethyl)thieno[3,2-b]pyridine-3-carboxylate]",100 to 1000
14,"CNC(=O)c1csc2c(C(F)(F)F)cc(N3CCC(OC(=O)N[C@H](C)CF)CC3)nc12 [Example 692, [1-[3-(Methylcarbamoyl)-7-(trifluoromethyl)thieno[3,2-b]pyridin-5-yl]-4-piperidyl] N-[(1R)-2-fluoro-1-methyl-ethyl]carbamate]",< 100

# The next lines start with the values.
row,IC50 [nM],SMILES
1,100 to 1000,"CNC(=O)c1csc2c(C(F)(F)F)cc(OCC3CN(C(=O)OC(C)(C)C)C3)nc12 [Example 585, tert-Butyl 3-(((3-(methylcarbamoyl)-7-(trifluoromethyl)thieno[3,2-b]pyridin-5-yl)oxy)methyl)azetidine-1-carboxylate]"
2,< 100,"CNC(=O)c1csc2c(C(F)(F)F)cc(O[C@H]3CCN(C(=O)OCC4CC4)C3)nc12 [Example 595, Cyclopropylmethyl (S)-3-((3-(methylcarbamoyl)-7-(trifluoromethyl)thieno[3,2-b]pyridin-5-yl)oxy)pyrrolidine-1-carboxylate]"
3,< 100,"CNC(=O)c1csc2c(C(F)(F)F)cc(O[C@H]3CCN(C(=O)OCCOC(F)(F)F)C3)nc12 [Example 600, 2-(Trifluoromethoxy)ethyl (S)-3-((3-(methylcarbamoyl)-7-(trifluoromethyl)thieno[3,2-b]pyridin-5-yl)oxy)pyrrolidine-1-carboxylate]"
4,100 to 1000,"CNC(=O)c1csc2c(C(F)(F)F)cc(CC3CCN(C(=O)OC(C)(C)C)CC3)nc12 [Example 634, tert-Butyl 4-((3-(methylcarbamoyl)-7-(trifluoromethyl)thieno[3,2-b]pyridin-5-yl)methyl)piperidine-1-carboxylate]"
5,100 to 1000,"CNC(=O)c1c(OC)sc2c(C(F)(F)F)c(Cl)c(N3CCN(CC(=O)NC(C)C)CC3)nc12 [Example 637, 6-Chloro-5-[4-[2-(isopropylamino)-2-oxo-ethyl]piperazin-1-yl]-2-methoxy-N-methyl-7-(trifluoromethyl)thieno[3,2-b]pyridine-3-carboxamide]"
6,< 100,"CNC(=O)c1csc2c(C(F)(F)F)c(F)c(N3CCC(OC(=O)N[C@@H](C)C4CC4)CC3)nc12 [Example 639, [1-[6-Fluoro-3-(methylcarbamoyl)-7-(trifluoromethyl)thieno[3,2-b]pyridin-5-yl]-4-piperidyl] N-[(1S)-1-cyclopropylethyl]carbamate]"
7,< 100,"CNC(=O)c1csc2c(C(F)(F)F)cc(N3CCC(OC(=O)NC(C)C(F)F)CC3)nc12 (stereo not drawn) [Example 670, [1-[3-(Methylcarbamoyl)-7-(trifluoromethyl)thieno[3,2-b]pyridin-5-yl]-4-piperidyl] N-(2,2-difluoro-1-methyl-ethyl)carbamate]"
8,> 1000,CNC(=O)c1csc2c(C(F)(F)F)cc(OC3CC4COCC(C3)N4C(=O)OC(C)(C)C)nc12 (stereo not drawn) [Example 750]
9,< 100,"CNC(=O)c1csc2c(C(F)(F)F)cc(N3CCN(C(=O)OCC4CC4)CC3)nc12 [Example 780, Cyclopropylmethyl 4-(3-(methylcarbamoyl)-7-(trifluoromethyl)thieno[3,2-b]pyridin-5-yl)piperazine-1-carboxylate]"

# From patent US11098056B2, “UDP glycosyltransferase inhibitors and methods of use” (GENZYME CORPORATION, priority 2018, dated 2021)
